ChEMBL document CHEMBL2321873, “1-(4-Phenylpiperazin-1-yl)-2-(1H-pyrazol-1-yl)ethanones as novel CCR1 antagonists” (Bioorg Med Chem Lett, 2013)
Activity calls are given as the source filed them. The calls are words filed in the database; no cut-off is given here.

What was measured:
[1] = biological target: T1, C-C chemokine receptor-like 2 (Homo sapiens) (UniProt O00421); experiment: Binding affinity to CCR11 (unknown origin) at 10 uM by radioligand displacement assay
T1 sequence (whole entry): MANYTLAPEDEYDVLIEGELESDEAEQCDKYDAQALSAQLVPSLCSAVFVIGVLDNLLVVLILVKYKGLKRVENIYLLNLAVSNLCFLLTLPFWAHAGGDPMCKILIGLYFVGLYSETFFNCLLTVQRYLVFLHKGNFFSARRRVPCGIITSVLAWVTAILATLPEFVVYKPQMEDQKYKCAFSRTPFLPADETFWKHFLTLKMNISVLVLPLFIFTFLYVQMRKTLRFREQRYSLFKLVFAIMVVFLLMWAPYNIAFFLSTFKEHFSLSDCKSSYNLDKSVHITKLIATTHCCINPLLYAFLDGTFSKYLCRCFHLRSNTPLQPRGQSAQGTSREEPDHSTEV

[2] = biological target: C-C chemokine receptor type 5 (Homo sapiens) (UniProt P51681); experiment: Antagonist activity at CCR5 (unknown origin) assessed as inhibition of chemotaxis at 10 uM
C-C chemokine receptor type 5 (Homo sapiens), sequence (P51681 whole entry, looked up): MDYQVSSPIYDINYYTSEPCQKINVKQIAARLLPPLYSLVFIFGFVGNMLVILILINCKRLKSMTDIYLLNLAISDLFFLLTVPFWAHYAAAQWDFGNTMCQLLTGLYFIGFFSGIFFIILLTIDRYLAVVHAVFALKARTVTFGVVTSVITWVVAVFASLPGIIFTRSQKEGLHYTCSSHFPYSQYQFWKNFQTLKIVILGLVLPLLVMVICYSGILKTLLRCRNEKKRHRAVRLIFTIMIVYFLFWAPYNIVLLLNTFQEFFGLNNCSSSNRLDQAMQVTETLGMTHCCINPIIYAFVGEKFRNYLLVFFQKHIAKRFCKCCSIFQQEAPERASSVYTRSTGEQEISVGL

[3] = biological target: T2, C-C chemokine receptor type 4 (Homo sapiens) (UniProt P51679); experiment: Binding affinity to CCR4 (unknown origin) at 10 uM by radioligand displacement assay
T2 sequence (whole entry): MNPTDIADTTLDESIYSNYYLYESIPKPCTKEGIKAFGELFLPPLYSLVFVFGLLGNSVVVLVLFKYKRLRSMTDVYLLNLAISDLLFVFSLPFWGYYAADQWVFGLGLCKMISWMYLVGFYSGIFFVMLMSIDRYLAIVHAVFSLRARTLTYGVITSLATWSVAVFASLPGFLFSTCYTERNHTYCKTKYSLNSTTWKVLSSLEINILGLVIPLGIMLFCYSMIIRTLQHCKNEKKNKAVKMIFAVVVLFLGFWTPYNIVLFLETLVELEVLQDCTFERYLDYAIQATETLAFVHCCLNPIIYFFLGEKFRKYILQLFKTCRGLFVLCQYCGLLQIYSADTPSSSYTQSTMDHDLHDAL

Rattus norvegicus = experiment: Toxicity in Sprague-Dawley rat assessed as necropsy at 70 to 360 mg/kg, po after 7 days; type: organism-based; design: dose 70-360 mg/kg, route oral; details: in vivo, 168 h
[4] = biological target: T3, CX3C chemokine receptor 1 (Homo sapiens) (UniProt P49238); experiment: Binding affinity to CX3CR1 (unknown origin) at 10 uM by radioligand displacement assay
T3 sequence (whole entry): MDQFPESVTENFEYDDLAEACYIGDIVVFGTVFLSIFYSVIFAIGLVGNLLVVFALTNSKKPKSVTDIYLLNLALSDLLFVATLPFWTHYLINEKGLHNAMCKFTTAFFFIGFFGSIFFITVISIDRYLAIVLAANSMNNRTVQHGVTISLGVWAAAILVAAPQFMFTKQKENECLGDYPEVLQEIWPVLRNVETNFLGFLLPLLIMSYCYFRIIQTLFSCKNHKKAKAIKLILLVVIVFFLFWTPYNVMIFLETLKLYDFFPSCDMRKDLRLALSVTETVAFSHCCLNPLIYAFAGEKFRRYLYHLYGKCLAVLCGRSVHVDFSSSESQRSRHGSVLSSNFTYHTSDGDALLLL

[5] = biological target: T4, C-C chemokine receptor type 9 (Homo sapiens) (UniProt P51686); experiment: Antagonist activity at CCR9 (unknown origin) assessed as inhibition of calcium flux at 10 uM; type: functional
T4 sequence (whole entry): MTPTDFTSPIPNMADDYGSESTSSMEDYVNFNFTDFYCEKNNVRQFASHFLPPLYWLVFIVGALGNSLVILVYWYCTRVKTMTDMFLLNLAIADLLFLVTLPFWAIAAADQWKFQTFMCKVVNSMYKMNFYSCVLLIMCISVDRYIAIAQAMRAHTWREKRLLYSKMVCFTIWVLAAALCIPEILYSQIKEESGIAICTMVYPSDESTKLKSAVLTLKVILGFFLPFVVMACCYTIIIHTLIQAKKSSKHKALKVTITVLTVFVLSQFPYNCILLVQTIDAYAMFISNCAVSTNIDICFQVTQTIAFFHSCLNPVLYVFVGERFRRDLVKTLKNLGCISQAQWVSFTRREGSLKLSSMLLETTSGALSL

[6] = Half life in Sprague-Dawley rat at 1 mg/kg, iv; type: ADME, organism-based; design: dose 1 mg/kg, route intravenous; details: in vivo
[7] = biological target: T5, C-C chemokine receptor type 6 (Homo sapiens) (UniProt P51684); experiment: Antagonist activity at CCR6 (unknown origin) assessed as inhibition of calcium flux at 10 uM; type: functional
T5 sequence (whole entry): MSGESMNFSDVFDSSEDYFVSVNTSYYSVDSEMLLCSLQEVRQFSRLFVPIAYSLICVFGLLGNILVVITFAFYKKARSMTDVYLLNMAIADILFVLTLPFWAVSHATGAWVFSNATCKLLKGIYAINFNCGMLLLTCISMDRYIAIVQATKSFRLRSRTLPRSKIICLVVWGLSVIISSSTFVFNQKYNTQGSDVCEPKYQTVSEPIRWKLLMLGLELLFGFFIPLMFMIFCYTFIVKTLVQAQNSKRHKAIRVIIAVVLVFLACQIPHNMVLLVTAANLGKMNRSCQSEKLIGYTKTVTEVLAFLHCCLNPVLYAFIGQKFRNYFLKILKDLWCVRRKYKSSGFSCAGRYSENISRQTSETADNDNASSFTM

[8] = biological target: T6, G protein-coupled receptor (Human herpesvirus 8) (UniProt Q76SF8); experiment: Antagonist activity at HHV8 ORF74 assessed as inhibition of calcium flux at 10 uM; type: functional; details: Human gammaherpesvirus 8
T6 sequence (whole entry): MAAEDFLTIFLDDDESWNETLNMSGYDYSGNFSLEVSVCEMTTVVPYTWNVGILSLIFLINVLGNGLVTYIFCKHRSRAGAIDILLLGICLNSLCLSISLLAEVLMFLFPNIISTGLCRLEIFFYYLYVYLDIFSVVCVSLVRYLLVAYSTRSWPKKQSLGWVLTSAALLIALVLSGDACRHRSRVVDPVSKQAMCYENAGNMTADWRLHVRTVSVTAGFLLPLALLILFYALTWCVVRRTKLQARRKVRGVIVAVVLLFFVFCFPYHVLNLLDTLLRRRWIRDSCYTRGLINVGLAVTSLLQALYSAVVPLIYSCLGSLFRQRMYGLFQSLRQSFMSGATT

[9] = biological target: T7, C-C chemokine receptor type 3 (Homo sapiens) (UniProt P51677); experiment: Antagonist activity at CCR3 (unknown origin) assessed as inhibition of calcium flux at 10 uM; type: functional
T7 sequence (whole entry): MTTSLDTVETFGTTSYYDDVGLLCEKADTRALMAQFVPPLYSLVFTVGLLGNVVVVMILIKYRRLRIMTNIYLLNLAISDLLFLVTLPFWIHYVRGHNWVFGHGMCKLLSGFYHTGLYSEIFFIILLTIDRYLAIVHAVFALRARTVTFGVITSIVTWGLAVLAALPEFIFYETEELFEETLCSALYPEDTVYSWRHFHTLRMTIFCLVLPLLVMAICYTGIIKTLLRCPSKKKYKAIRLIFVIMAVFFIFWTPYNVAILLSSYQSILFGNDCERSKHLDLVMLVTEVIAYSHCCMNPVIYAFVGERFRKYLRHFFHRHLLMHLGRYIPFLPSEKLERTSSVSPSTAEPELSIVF

COc1cc(N2CCN(C(=O)Cn3nc(C(F)(F)F)c(Cl)c3C)CC2)ccc1Cl
Activity [1]: inactive | inhibition [2]: inactive | Activity [3]: inactive | Activity (Rattus norvegicus): Non-toxic | Activity [4]: inactive | inhibition [5]: inactive | half-life [6]: 2.2 h | inhibition [7]: inactive | inhibition [8]: inactive | inhibition [9]: inactive
